Reference: PMC3048208 (British Journal of Cancer, 2011)
Where a name gives a salt, the structure may show the parent alone. Marks after values point to notes of the source that are not given here.

System: patients with advanced solid tumours
Experiment: Phase I safety: DLT and adverse events (CTCAE v3.0)
[1] = All grades, level 1, 10 mg 3 days every 2 weeks, 3 patients
[2] = All grades, level 2, 10 mg, 6 patients
[3] = All grades, level 3, 20 mg, 6 patients
[4] = All grades, level 4, 30 mg, 4 patients
[5] = All grades, level 5, 50 mg, 4 patients
[6] = All grades, level 5.5, 60 mg, 7 patients
[7] = All grades, level 6, 70 mg, 6 patients
[8] = All grades, level 7, 90 mg, 2 patients
[9] = Grades 3/4, level 1, 10 mg 3 days every 2 weeks, 3 patients

## CCCCc1nc2cc(/C=C/C(=O)NO)ccc2n1CCN(CC)CC [SB939, 3-[2-butyl-1-(2-diethylaminoethyl)-1H-benzoimidazol-5-yl]-N-hydroxyacrylami-hydrochloride]
60 mg
  Grade 2 raised AST and hyperbilirubinemia, no. of patients: 3
  Grade 3 ALT rise, no. of patients: two
70 mg
  Dose reductions, patients: 2 of 6
90 mg
  Dose reductions, patients: 2 of 2
[1]
  ALT (raised), no. of patients: 0
  AST (raised), no. of patients: 1
  Abdominal pain, no. of patients: 0
  Alkaline phophatase (raised), no. of patients: 1
  Altered taste, no. of patients: 0
  Anaemia, no. of patients: 2
  Anorexia, no. of patients: 0
  Bilirubin (raised), no. of patients: 0
  Cardiac arrythmia other, no. of patients: 0
  Cardiac dysfunction, no. of patients: 0
  Cardiac ischaemia, no. of patients: 0
  Constipation, no. of patients: 0
  Creatinine (raised), no. of patients: 0
  Diarrhoea, no. of patients: 0
  Fatigue, no. of patients: 0
  Leukopenia, no. of patients: 1
  Lymphopenia, no. of patients: 0
  Mucositis, no. of patients: 1
  Myositis, no. of patients: 0
  Nausea, no. of patients: 0
  Neutropenia, no. of patients: 1
  QT prolongation, no. of patients: 0
  Supra ventricular arrythmia, no. of patients: 0
  Syncope, no. of patients: 0
  Thrombocytopenia, no. of patients: 0
  Ventricular arrythmias (PVCs), no. of patients: 0
  Ventricular bigemini, no. of patients: 0
  Vomiting, no. of patients: 0
[2]
  ALT (raised), no. of patients: 1
  AST (raised), no. of patients: 3
  Abdominal pain, no. of patients: 0
  Alkaline phophatase (raised), no. of patients: 5
  Altered taste, no. of patients: 0
  Anaemia, no. of patients: 6
  Anorexia, no. of patients: 0
  Bilirubin (raised), no. of patients: 1
  CPK, no. of patients: 0
  Cardiac arrythmia other, no. of patients: 0
  Cardiac dysfunction, no. of patients: 0
  Cardiac ischaemia, no. of patients: 0
  Constipation, no. of patients: 0
  Creatinine (raised), no. of patients: 1
  Diarrhoea, no. of patients: 1
  Fatigue, no. of patients: 2
  Leukopenia, no. of patients: 2
  Lymphopenia, no. of patients: 5
  Mucositis, no. of patients: 1
  Myositis, no. of patients: 0
  Nausea, no. of patients: 0
  Neutropenia, no. of patients: 1
  QT prolongation, no. of patients: 1
  Supra ventricular arrythmia, no. of patients: 0
  Syncope, no. of patients: 0
  Thrombocytopenia, no. of patients: 2
  Ventricular arrythmias (PVCs), no. of patients: 1 ^c
  Ventricular bigemini, no. of patients: 1 ^c
  Vomiting, no. of patients: 0
[3]
  ALT (raised), no. of patients: 2
  AST (raised), no. of patients: 3
  Abdominal pain, no. of patients: 0
  Alkaline phophatase (raised), no. of patients: 4
  Altered taste, no. of patients: 1
  Anaemia, no. of patients: 5
  Anorexia, no. of patients: 2
  Bilirubin (raised), no. of patients: 1
  CPK, no. of patients: 1
  Cardiac arrythmia other, no. of patients: 0
  Cardiac dysfunction, no. of patients: 0
  Cardiac ischaemia, no. of patients: 0
  Constipation, no. of patients: 0
  Creatinine (raised), no. of patients: 1
  Diarrhoea, no. of patients: 1
  Fatigue, no. of patients: 2
  Leukopenia, no. of patients: 1
  Lymphopenia, no. of patients: 2
  Mucositis, no. of patients: 0
  Myositis, no. of patients: 1
  Nausea, no. of patients: 2
  Neutropenia, no. of patients: 1
  QT prolongation, no. of patients: 0
  Supra ventricular arrythmia, no. of patients: 0
  Syncope, no. of patients: 1
  Thrombocytopenia, no. of patients: 1
  Ventricular arrythmias (PVCs), no. of patients: 0
  Ventricular bigemini, no. of patients: 0
  Vomiting, no. of patients: 1
[4]
  ALT (raised), no. of patients: 2
  AST (raised), no. of patients: 1
  Abdominal pain, no. of patients: 0
  Alkaline phophatase (raised), no. of patients: 2
  Altered taste, no. of patients: 0
  Anaemia, no. of patients: 4
  Anorexia, no. of patients: 0
  Bilirubin (raised), no. of patients: 1
  CPK, no. of patients: 1
  Cardiac arrythmia other, no. of patients: 0
  Cardiac dysfunction, no. of patients: 0
  Cardiac ischaemia, no. of patients: 0
  Constipation, no. of patients: 0
  Creatinine (raised), no. of patients: 2
  Diarrhoea, no. of patients: 1
  Fatigue, no. of patients: 1
  Leukopenia, no. of patients: 2
  Lymphopenia, no. of patients: 2
  Mucositis, no. of patients: 0
  Myositis, no. of patients: 0
  Nausea, no. of patients: 0
  Neutropenia, no. of patients: 2
  QT prolongation, no. of patients: 0
  Supra ventricular arrythmia, no. of patients: 0
  Syncope, no. of patients: 0
  Thrombocytopenia, no. of patients: 0
  Ventricular arrythmias (PVCs), no. of patients: 0
  Ventricular bigemini, no. of patients: 0
  Vomiting, no. of patients: 0
[5]
  ALT (raised), no. of patients: 0
  AST (raised), no. of patients: 2
  Abdominal pain, no. of patients: 0
  Alkaline phophatase (raised), no. of patients: 2
  Altered taste, no. of patients: 0
  Anaemia, no. of patients: 4
  Anorexia, no. of patients: 1
  Bilirubin (raised), no. of patients: 0
  CPK, no. of patients: 0
  Cardiac arrythmia other, no. of patients: 0
  Cardiac dysfunction, no. of patients: 0
  Cardiac ischaemia, no. of patients: 0
  Constipation, no. of patients: 0
  Creatinine (raised), no. of patients: 0
  Diarrhoea, no. of patients: 0
  Fatigue, no. of patients: 3
  Leukopenia, no. of patients: 1
  Lymphopenia, no. of patients: 4
  Mucositis, no. of patients: 0
  Myositis, no. of patients: 0
  Nausea, no. of patients: 2
  Neutropenia, no. of patients: 1
  QT prolongation, no. of patients: 0
  Supra ventricular arrythmia, no. of patients: 0
  Syncope, no. of patients: 0
  Thrombocytopenia, no. of patients: 0
  Ventricular arrythmias (PVCs), no. of patients: 0
  Ventricular bigemini, no. of patients: 0
  Vomiting, no. of patients: 2
[6]
  ALT (raised), no. of patients: 4
  AST (raised), no. of patients: 5
  Abdominal pain, no. of patients: 0
  Alkaline phophatase (raised), no. of patients: 6
  Altered taste, no. of patients: 1
  Anaemia, no. of patients: 7
  Anorexia, no. of patients: 4
  Bilirubin (raised), no. of patients: 2
  CPK, no. of patients: 0
  Cardiac arrythmia other, no. of patients: 1
  Cardiac dysfunction, no. of patients: 0
  Cardiac ischaemia, no. of patients: 0
  Constipation, no. of patients: 0
  Creatinine (raised), no. of patients: 2
  Diarrhoea, no. of patients: 4
  Fatigue, no. of patients: 6
  Leukopenia, no. of patients: 5
  Lymphopenia, no. of patients: 6
  Mucositis, no. of patients: 0
  Myositis, no. of patients: 0
  Nausea, no. of patients: 5
  Neutropenia, no. of patients: 5
  QT prolongation, no. of patients: 1
  Supra ventricular arrythmia, no. of patients: 0
  Syncope, no. of patients: 0
  Thrombocytopenia, no. of patients: 5
  Ventricular arrythmias (PVCs), no. of patients: 0
  Ventricular bigemini, no. of patients: 0
  Vomiting, no. of patients: 4
[7]
  ALT (raised), no. of patients: 1
  AST (raised), no. of patients: 2
  Abdominal pain, no. of patients: 0
  Alkaline phophatase (raised), no. of patients: 3
  Altered taste, no. of patients: 0
  Anaemia, no. of patients: 6
  Anorexia, no. of patients: 3
  Bilirubin (raised), no. of patients: 0
  CPK, no. of patients: 1
  Cardiac arrythmia other, no. of patients: 0
  Cardiac dysfunction, no. of patients: 0
  Cardiac ischaemia, no. of patients: 0
  Constipation, no. of patients: 0
  Creatinine (raised), no. of patients: 2
  Diarrhoea, no. of patients: 0
  Fatigue, no. of patients: 4
  Leukopenia, no. of patients: 3
  Lymphopenia, no. of patients: 4
  Mucositis, no. of patients: 1
  Myositis, no. of patients: 0
  Nausea, no. of patients: 4
  Neutropenia, no. of patients: 3
  QT prolongation, no. of patients: 1
  Supra ventricular arrythmia, no. of patients: 0
  Syncope, no. of patients: 0
  Thrombocytopenia, no. of patients: 6
  Ventricular arrythmias (PVCs), no. of patients: 0
  Ventricular bigemini, no. of patients: 0
  Vomiting, no. of patients: 2
[8]
  ALT (raised), no. of patients: 2
  AST (raised), no. of patients: 2
  Abdominal pain, no. of patients: 0
  Alkaline phophatase (raised), no. of patients: 1
  Altered taste, no. of patients: 1
  Anaemia, no. of patients: 2
  Anorexia, no. of patients: 1
  Bilirubin (raised), no. of patients: 1
  CPK, no. of patients: 1
  Cardiac arrythmia other, no. of patients: 1
  Cardiac dysfunction, no. of patients: 1
  Cardiac ischaemia, no. of patients: 1
  Constipation, no. of patients: 0
  Creatinine (raised), no. of patients: 2
  Diarrhoea, no. of patients: 0
  Fatigue, no. of patients: 2 ^c
  Leukopenia, no. of patients: 1
  Lymphopenia, no. of patients: 2
  Mucositis, no. of patients: 0
  Myositis, no. of patients: 0
  Nausea, no. of patients: 2
  Neutropenia, no. of patients: 1
  QT prolongation, no. of patients: 1
  Supra ventricular arrythmia, no. of patients: 1
  Syncope, no. of patients: 0
  Thrombocytopenia, no. of patients: 2
  Ventricular arrythmias (PVCs), no. of patients: 1
  Ventricular bigemini, no. of patients: 1
  Vomiting, no. of patients: 2 ^c
[9]
  ALT (raised), no. of patients: 0
  AST (raised), no. of patients: 0
  Abdominal pain, no. of patients: 0
  Alkaline phophatase (raised), no. of patients: 0
  Altered taste, no. of patients: 0
  Anaemia, no. of patients: 0
  Anorexia, no. of patients: 0
  Bilirubin (raised), no. of patients: 0
  Cardiac arrythmia other, no. of patients: 0
  Cardiac dysfunction, no. of patients: 0
  Cardiac ischaemia, no. of patients: 0
  Constipation, no. of patients: 0
  Creatinine (raised), no. of patients: 0
  Diarrhoea, no. of patients: 0
  Fatigue, no. of patients: 0
  Leukopenia, no. of patients: 0
  Lymphopenia, no. of patients: 0
  Mucositis, no. of patients: 0
